Assay results published in patent US20260028326A1, “COMPOUND BASED ON ISOINDOLINE-SUBSTITUTED GLUTARIMIDE BACKBONE AND USE THEREOF” (GLUETACS THERAPEUTICS (SHANGHAI) CO., LTD., priority 2022, published 2026).

These compounds were tested against human Cereblon WT GST-tagged protein (Homo sapiens (Human), UniProt Q96SW2) (assay: CRBN-binding affinity, HTRF (CEREBLON BINDING kit)).
Chain of human Cereblon WT GST-tagged protein (Q96SW2 whole entry): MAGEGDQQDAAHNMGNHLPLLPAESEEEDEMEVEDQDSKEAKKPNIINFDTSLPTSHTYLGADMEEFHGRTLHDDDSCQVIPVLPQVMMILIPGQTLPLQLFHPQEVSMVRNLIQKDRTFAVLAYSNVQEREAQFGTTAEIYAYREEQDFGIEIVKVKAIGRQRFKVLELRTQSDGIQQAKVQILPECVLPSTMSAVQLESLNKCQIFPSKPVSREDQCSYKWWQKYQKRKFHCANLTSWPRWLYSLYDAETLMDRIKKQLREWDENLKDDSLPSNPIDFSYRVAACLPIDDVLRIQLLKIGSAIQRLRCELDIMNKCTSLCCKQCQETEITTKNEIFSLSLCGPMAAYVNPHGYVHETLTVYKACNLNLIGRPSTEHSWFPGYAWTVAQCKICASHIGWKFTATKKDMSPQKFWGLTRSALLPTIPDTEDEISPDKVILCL
Summary of the method: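 HTRF competition readout: compounds compete with a thalidomide-Re conjugate for GST-tagged wild-type human CRBN detected via Eu-labelled anti-GST antibody. Inhibition rate derived relative to protein-free blank wells.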
`CC1(C)CCC(C(=O)N2CC3CC(C2)N3C(=O)c2ccc3c(c2)CN(C2CCC(=O)NC2=O)C3=O)=C(c2ccc(Cl)cc2)C1` (stereo not shown) [GT-05538, 3-(5-(3-(4′-chloro-5,5-dimethyl-3,4,5,6-tetrahydro-[1,1′-biphenyl]-2-carbonyl)-3,6-diazabicyclo[3.1.1]heptane-6-carbonyl)-1-oxoisoindolin-2-yl)piperidine-2,6-dione] showed an IC50 of 1020 nM. Work on `CC1(C)CCC(C(=O)N2CCN(Cc3cccc4c3CN(C3CCC(=O)NC3=O)C4=O)CC2)=C(c2ccc(Cl)cc2)C1` (stereo not shown) [GT-05528, 3-(4-((4-(4′-chloro-5,5-dimethyl-3,4,5,6-tetrahydro-[1,1′-biphenyl]-2-carbonyl)piperazin-1-yl)methyl)-1-oxoisoindolin-2-yl)piperidine-2,6-dione] yielded an IC50 of 1930 nM. Compound `O=C1CCC(N2Cc3cc(C(=O)N4CC5CC(C4)N5Cc4ccccc4-c4ccc(Cl)cc4)ccc3C2=O)C(=O)N1` (stereo not shown) [GT-05705, 3-(5-(6-((4′-chloro-[1,1′-biphenyl]-2-yl)methyl)-3,6-diazabicyclo[3.1.1]heptane-3-carbonyl)-1-oxoisoindolin-2-yl)piperidine-2,6-dione] has an IC50 of 880 nM. `CC1(C)CCC(CN2CC3CCC2CN3C(=O)c2ccc3c(c2)CN(C2CCC(=O)NC2=O)C3=O)=C(c2ccc(Cl)cc2)C1` (stereo not shown) [GT-05795, 3-(5-(5-((4′-chloro-5,5-dimethyl-3,4,5,6-tetrahydro-[1,1′-biphenyl]-2-yl)methyl)-2,5-diazabicyclo[2.2.2]octane-2-carbonyl)-1-oxoisoindolin-2-yl)piperidine-2,6-dione] showed an IC50 of 940 nM. For `O=C1CCC(N2Cc3cc(CN4CC5CC(C4)N5Cc4ccccc4-c4ccc(Cl)cc4)ccc3C2=O)C(=O)N1` (stereo not shown) [GT-05704, 3-(5-((6-((4′-chloro-[1,1′-biphenyl]-2-yl)methyl)-3,6-diazabicyclo[3.1.1]heptan-3-yl)methyl)-1-oxoisoindolin-2-yl)piperidine-2,6-dione], the IC50 was 680 nM. Compound `CC1(C)CCC(C(=O)N2CC(Cc3ccc4c(c3)CN(C3CCC(=O)NC3=O)C4=O)C2)=C(c2ccc(F)cc2)C1` (stereo not shown) [GT-05488, 3-(5-((1-(4′-fluoro-5,5-dimethyl-3,4,5,6-tetrahydro-[1,1′-biphenyl]-2-carbonyl)azetidin-3-yl)methyl)-1-oxoisoindolin-2-yl)piperidine-2,6-dione] has an IC50 of 600 nM. Compound `CC1(C)CCC(CN2C3CCC2CN(Cc2ccc4c(c2F)CN(C2CCC(=O)NC2=O)C4=O)C3)=C(c2ccc(Cl)cc2)C1` (stereo not shown) [GT-05534, 3-(5-((8-((4′-chloro-5,5-dimethyl-3,4,5,6-tetrahydro-[1,1′-biphenyl]-2-yl)methyl)-3,8-diazabicyclo[3.2.1]octan-3-yl)methyl)-4-fluoro-1-oxoisoindolin-2-yl)piperidine-2,6-dione] has an IC50 of 1170 nM. Compound `CC1(C)CCC(CN2CC3CN(Cc4ccc5c(c4)CN(C4CCC(=O)NC4=O)C5=O)CC3C2)=C(c2ccc(Cl)cc2)C1` (stereo not shown) [GT-05653, 3-(5-((5-((4′-chloro-5,5-dimethyl-3,4,5,6-tetrahydro-[1,1′-biphenyl]-2-yl)methyl)hexahydropyrrolo[3,4-c]pyrrol-2(1H)-yl)methyl)-1-oxoisoindolin-2-yl)piperidine-2,6-dione] has an IC50 of 1060 nM. `CC1(C)CCC(CN2CC3CC(C2)N3C(=O)c2ccc3c(c2)CN(C2CCC(=O)NC2=O)C3=O)=C(c2ccc(Cl)cc2)C1` (stereo not shown) [GT-05440, 3-(5-(3-((4′-chloro-5,5-dimethyl-3,4,5,6-tetrahydro-[1,1′-biphenyl]-2-yl)methyl)-3,6-diazabicyclo[3.1.1]heptane-6-carbonyl)-1-oxoisoindolin-2-yl)piperidine-2,6-dione] showed an IC50 of 940 nM. With `CC1(C)CCC(CN2CC(Cc3ccc4c(c3)CN(C3CCC(=O)NC3=O)C4=O)C2)=C(c2ccc(Cl)cc2)C1` (stereo not shown) [GT-05428, 3-(5-((1-((4′-chloro-5,5-dimethyl-3,4,5,6-tetrahydro-[1,1′-biphenyl]-2-yl)methyl)azetidin-3-yl)methyl)-1-oxoisoindolin-2-yl)piperidine-2,6-dione] the IC50 was 1080 nM. For `O=C1CCC(N2Cc3cc(CN4C5CC4CN(C(=O)C4=C(c6ccc(F)cc6)CCCC4)C5)cc(F)c3C2=O)C(=O)N1` (stereo not shown) [GT-05477, 3-(7-fluoro-5-((3-(4′-fluoro-3,4,5,6-tetrahydro-[1,1′-biphenyl]-2-carbonyl)-3,6-diazabicyclo[3.1.1]heptan-6-yl)methyl)-1-oxoisoindolin-2-yl)piperidine-2,6-dione], the IC50 was 660 nM. Work on `CC1(C)CCC(C(=O)N2CC3(C2)CN(C(=O)c2ccc4c(c2)CN(C2CCC(=O)NC2=O)C4=O)C3)=C(c2ccc(Cl)cc2)C1` (stereo not shown) [GT-05682, 3-(5-(6-(4′-chloro-5,5-dimethyl-3,4,5,6-tetrahydro-[1,1′-biphenyl]-2-carbonyl)-2,6-diazaspiro[3.3]heptane-2-carbonyl)-1-oxoisoindolin-2-yl)piperidine-2,6-dione] yielded an IC50 of 570 nM. Work on `CC1(C)CCC(CN2CCN(Cc3cc(F)c4c(c3)CN(C3CCC(=O)NC3=O)C4=O)CC2)=C(c2ccc(F)cc2)C1` (stereo not shown) [GT-05392, 3-(7-fluoro-5-((4-((4′-fluoro-5,5-dimethyl-3,4,5,6-tetrahydro-[1,1′-biphenyl]-2-yl)methyl)piperazin-1-yl)methyl)-1-oxoisoindolin-2-yl)piperidine-2,6-dione] yielded an IC50 of 440 nM. `CC1(C)CCC(C(=O)N2CCN(Cc3cc(F)c4c(c3)CN(C3CCC(=O)NC3=O)C4=O)CC2)=C(c2ccc(Cl)cc2)C1` (stereo not shown) [GT-05527, 3-(5-((4-(4′-chloro-5,5-dimethyl-3,4,5,6-tetrahydro-[1,1′-biphenyl]-2-carbonyl)piperazin-1-yl)methyl)-7-fluoro-1-oxoisoindolin-2-yl)piperidine-2,6-dione] gave an IC50 of 990 nM. `O=C1CCC(N2Cc3c(ccc(CN4C5CC4CN(C(=O)C4=C(c6ccc(F)cc6)CCCC4)C5)c3F)C2=O)C(=O)N1` (stereo not shown) [GT-05475, 3-(4-fluoro-5-((3-(4′-fluoro-3,4,5,6-tetrahydro-[1,1′-biphenyl]-2-carbonyl)-3,6-diazabicyclo[3.1.1]heptan-6-yl)methyl)-1-oxoisoindolin-2-yl)piperidine-2,6-dione] showed an IC50 of 910 nM. Compound `O=C1CCC(N2Cc3cc(C(=O)N4C5CC4CN(Cc4ccccc4-c4ccc(Cl)cc4)C5)ccc3C2=O)C(=O)N1` (stereo not shown) [GT-05643, 3-(5-(3-((4′-chloro-[1,1′-biphenyl]-2-yl)methyl)-3,6-diazabicyclo[3.1.1]heptane-6-carbonyl)-1-oxoisoindolin-2-yl)piperidine-2,6-dione] has an IC50 of 590 nM. `CC1(C)CCC(C(=O)N2CCC(Nc3ccc4c(c3)CN(C3CCC(=O)NC3=O)C4=O)CC2)=C(c2ccc(F)cc2)C1` (stereo not shown) [GT-05786, 3-(5-((1-(4′-fluoro-5,5-dimethyl-3,4,5,6-tetrahydro-[1,1′-biphenyl]-2-carbonyl)piperidin-4-yl)amino)-1-oxoisoindolin-2-yl)piperidine-2,6-dione] was tested, and the IC50 was 1070 nM. Work on `CC1(C)CCC(CN2C3CC2CN(Cc2cc(F)c4c(c2)CN(C2CCC(=O)NC2=O)C4=O)C3)=C(c2ccc(Cl)cc2)C1` (stereo not shown) [GT-05531, 3-(5-((6-((4′-chloro-5,5-dimethyl-3,4,5,6-tetrahydro-[1,1′-biphenyl]-2-yl)methyl)-3,6-diazabicyclo[3.1.1]heptan-3-yl)methyl)-7-fluoro-1-oxoisoindolin-2-yl)piperidine-2,6-dione] yielded an IC50 of 800 nM. For `CC1(C)CCC(CN2CC3CCC2CN3Cc2cc3c(cc2F)C(=O)N(C2CCC(=O)NC2=O)C3)=C(c2ccc(Cl)cc2)C1` (stereo not shown) [GT-05460, 3-(5-((5-((4′-chloro-5,5-dimethyl-3,4,5,6-tetrahydro-[1,1′-biphenyl]-2-yl)methyl)-2,5-diazabicyclo[2.2.2]octan-2-yl)methyl)-6-fluoro-1-oxoisoindolin-2-yl)piperidine-2,6-dione], the IC50 was 1630 nM. `CC1(C)CCC(C(=O)N2C3CCC2CN(Cc2ccc4c(c2)CN(C2CCC(=O)NC2=O)C4=O)C3)=C(c2ccc(F)cc2)C1` (stereo not shown) [GT-05517, 3-(5-((8-(4′-fluoro-5,5-dimethyl-3,4,5,6-tetrahydro-[1,1′-biphenyl]-2-carbonyl)-3,8-diazabicyclo[3.2.1]octan-3-yl)methyl)-1-oxoisoindolin-2-yl)piperidine-2,6-dione] gave an IC50 of 600 nM. In the case of `O=C1CCC(N2Cc3cc(C(O)C4(O)CN(Cc5ccccc5-c5ccc(Cl)cc5)C4)ccc3C2=O)C(=O)N1` (stereo not shown) [GT-03880, 3-(5-((1-((4′-chloro-[1,1′-biphenyl]-2-yl)methyl)-3-hydroxyazetidin-3-yl)(hydroxy)methyl)-1-oxoisoindolin-2-yl)piperidine-2,6-dione], the IC50 is reported as 230 nM. Work on `CC1(C)CCC(C(=O)N2CC3CCC(C2)N3Cc2ccc3c(c2)CN(C2CCC(=O)NC2=O)C3=O)=C(c2ccc(Cl)cc2)C1` (stereo not shown) [GT-05522, 3-(5-((3-(4′-chloro-5,5-dimethyl-3,4,5,6-tetrahydro-[1,1′-biphenyl]-2-carbonyl)-3,8-diazabicyclo[3.2.1]octan-8-yl)methyl)-1-oxoisoindolin-2-yl)piperidine-2,6-dione] yielded an IC50 of 480 nM. For `O=C1CCC(N2Cc3cc(CN4C5CC4CN(C(=O)c4ccccc4-c4ccc(Cl)cc4)C5)c(F)cc3C2=O)C(=O)N1` (stereo not shown) [GT-05667, 3-(5-((3-(4′-chloro-[1,1′-biphenyl]-2-carbonyl)-3,6-diazabicyclo[3.1.1]heptan-6-yl)methyl)-6-fluoro-1-oxoisoindolin-2-yl)piperidine-2,6-dione], the IC50 was 750 nM. For `CC1(C)CCC(CN2C3CCC2CN(Cc2cc(F)c4c(c2)CN(C2CCC(=O)NC2=O)C4=O)C3)=C(c2ccc(Cl)cc2)C1` (stereo not shown) [GT-05536, 3-(5-((8-((4′-chloro-5,5-dimethyl-3,4,5,6-tetrahydro-[1,1′-biphenyl]-2-yl)methyl)-3,8-diazabicyclo[3.2.1]octan-3-yl)methyl)-7-fluoro-1-oxoisoindolin-2-yl)piperidine-2,6-dione], the IC50 was 1050 nM. In the case of `O=C1CCC(N2Cc3cc(C(=O)N4CC5CC4CN5Cc4ccccc4-c4ccc(Cl)cc4)ccc3C2=O)C(=O)N1` (stereo not shown) [GT-05639, 3-(5-(5-((4′-chloro-[1,1′-biphenyl]-2-yl)methyl)-2,5-diazabicyclo[2.2.1]heptane-2-carbonyl)-1-oxoisoindolin-2-yl)piperidine-2,6-dione], the IC50 is reported as 780 nM.
